We go through 34 compounds from ChEMBL document CHEMBL1141064, “Discovery and structure-activity relationships of novel sulfonamides as potent PTP1B inhibitors” (Bioorg Med Chem Lett, 2005).

This experiment deals with T1, Tyrosine-protein phosphatase non-receptor type 1 (Homo sapiens, UniProt P18031).
T1 sequence (P18031 whole entry): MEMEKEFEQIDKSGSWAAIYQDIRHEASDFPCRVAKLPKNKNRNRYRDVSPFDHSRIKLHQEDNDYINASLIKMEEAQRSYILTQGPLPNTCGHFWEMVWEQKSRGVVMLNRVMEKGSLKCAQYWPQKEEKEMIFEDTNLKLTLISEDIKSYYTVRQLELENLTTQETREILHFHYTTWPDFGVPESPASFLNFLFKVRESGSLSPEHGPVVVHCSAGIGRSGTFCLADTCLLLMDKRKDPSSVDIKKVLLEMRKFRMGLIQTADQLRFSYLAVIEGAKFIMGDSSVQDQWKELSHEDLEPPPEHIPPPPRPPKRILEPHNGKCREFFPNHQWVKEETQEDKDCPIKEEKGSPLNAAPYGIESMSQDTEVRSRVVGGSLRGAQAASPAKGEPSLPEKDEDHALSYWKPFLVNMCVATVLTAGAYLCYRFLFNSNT
In words: Inhibitory activity against protein tyrosine phosphatase 1B using O-methyl fluorescein monophosphate.

Usually IC50 stands for the point on the concentration scale where inhibition reaches its midpoint. Take `O=P(O)(O)C(F)(F)c1ccc(CNCc2ccc(-c3csnn3)cc2)cc1`: the IC50 amounted to 13700 nM.

For `O=C(O)COc1ccc(S(=O)(=O)N(Cc2ccccc2)Cc2ccc(C(F)(F)P(=O)(O)O)cc2)cc1Cl`, the IC50 came to 3000 nM.

In the case of `O=[N+]([O-])c1ccccc1S(=O)(=O)N(Cc1ccccc1)Cc1ccc(C(F)(F)P(=O)(O)O)cc1`, 7000 nM corresponded to half-maximal inhibition (IC50). This IC50 lies about 2.3-fold higher than the previous one.

Consider `CN(Cc1ccccc1)C(=O)CN(Cc1ccc(OCC(=O)O)cc1)Cc1ccc(C(F)(F)P(=O)(O)O)cc1`, for which the IC50 was 67500 nM.

Consider `O=C(O)COc1ccc(S(=O)(=O)N(Cc2ccc(C(F)(F)P(=O)(O)O)cc2)Cc2cccs2)cc1`, for which the IC50 was 1000 nM. Compared with the last compound, the IC50 is about 68-fold lower.

`O=C(O)COc1ccc(S(=O)(=O)N(Cc2ccc(NC(=O)c3ccccc3)cc2)Cc2ccc(C(F)(F)P(=O)(O)O)cc2)cc1` registered an IC50 of 630 nM. This IC50 is about 1.6-fold lower than that of the compound before.

In turn, `O=C(O)COc1ccc(C(=O)N(Cc2ccc(-c3csnn3)cc2)Cc2ccc(C(F)(F)P(=O)(O)O)cc2)cc1` showed an IC50 of 2300 nM.

In turn, `O=C(c1ccc(CN(Cc2ccccc2)S(=O)(=O)c2ccccc2[N+](=O)[O-])cc1)C(F)(F)P(=O)(O)O` had an IC50 of 12000 nM.

The compound `CS(=O)(=O)Nc1ccc(CN(Cc2ccc(C(F)(F)P(=O)(O)O)cc2)S(=O)(=O)c2ccc(OCC(=O)O)cc2)cc1` had an IC50 of 180 nM.

In the case of `O=C(O)COc1ccc(S(=O)(=O)N(Cc2ccccc2)Cc2ccc(C(F)(F)P(=O)(O)O)cc2)cc1Br`, the IC50 was found to be 4000 nM. Compared with the last compound, the IC50 is about 22-fold higher.

`CC(=O)NCCN(Cc1ccc(C(F)(F)P(=O)(O)O)cc1)S(=O)(=O)c1ccc(OCC(=O)O)cc1` gave an IC50 of 9000 nM.

`O=C(O)COc1ccc(S(=O)(=O)N(Cc2ccc(C(F)(F)P(=O)(O)O)cc2)c2ccc(-c3csnn3)cc2)cc1` yielded an IC50 of 220 nM.

Broadly, the Ki is the equilibrium dissociation constant of an inhibitor or competing ligand from its target. Read a low Ki as a stronger hold on the target. As to `O=C(O)COc1ccc(S(=O)(=O)N(Cc2ccc(-c3csnn3)cc2)Cc2ccc(C(F)(F)P(=O)(O)O)c(Br)c2)cc1`, 35 nM corresponded to half-maximal inhibition (IC50) and affinity was put at a Ki of 53 nM.

For the compound `CN(Cc1ccccc1)C(=O)CN(Cc1ccc(C(F)(F)P(=O)(O)O)cc1)S(=O)(=O)c1ccc(OCC(=O)O)cc1`, half-maximal inhibition (IC50) was put at 600 nM and the Ki was 590 nM.

With `COc1cc(CN(Cc2ccc(S(=O)(=O)N(C)C)cc2)S(=O)(=O)c2ccc(OCC(=O)O)cc2)ccc1C(F)(F)P(=O)(O)O`, half-maximal inhibition (IC50) required 1100 nM.

On to `O=C(O)COc1ccc(S(=O)(=O)N(Cc2ccccc2)Cc2ccc(C(F)(F)P(=O)(O)O)cc2)cc1F`, for which the IC50 amounted to 3000 nM.

The compound `O=C(O)COc1ccc(S(=O)(=O)N(CC(=O)N2CCCCC2)Cc2ccc(C(F)(F)P(=O)(O)O)cc2)cc1` came in with an IC50 of 6800 nM.

`COc1cc(CN(Cc2ccc(-c3csnn3)cc2)S(=O)(=O)c2ccc(OCC(=O)O)cc2)ccc1C(F)(F)P(=O)(O)O` displayed an IC50 of 60 nM.

Compound `Cc1cc(S(=O)(=O)N(Cc2ccccc2)Cc2ccc(C(F)(F)P(=O)(O)O)cc2)ccc1OCC(=O)O` had an IC50 of 4000 nM. This IC50 is about 67-fold higher than that of the compound before.

The compound `O=P(O)(O)C(F)(F)c1ccc(CN(Cc2ccc(-c3csnn3)cc2)S(=O)(=O)c2ccccc2)cc1` registered an IC50 of 210 nM and a Ki of 98 nM.

The compound `CN(Cc1ccccc1)C(=O)CN(Cc1ccc(C(F)(F)P(=O)(O)O)c(Br)c1)S(=O)(=O)c1ccc(OCC(=O)O)cc1` returned an IC50 of 31 nM and an inhibition constant (Ki) of 14 nM.

Take `O=C(O)COc1c(F)cc(S(=O)(=O)N(Cc2ccccc2)Cc2ccc(C(F)(F)P(=O)(O)O)cc2)cc1F`: the IC50 was 1000 nM.

With `O=C(O)COc1c(F)ccc(S(=O)(=O)N(Cc2ccccc2)Cc2ccc(C(F)(F)P(=O)(O)O)cc2)c1F`, half-maximal inhibition (IC50) was put at 1600 nM.

As to `CN(C)S(=O)(=O)c1ccc(CN(Cc2ccc(C(F)(F)P(=O)(O)O)cc2)S(=O)(=O)c2ccc(OCC(=O)O)cc2)cc1`, it took 1100 nM to reach half-maximal inhibition (IC50).

In turn, `O=C(c1ccc(O)cc1)N(Cc1ccc(-c2csnn2)cc1)Cc1ccc(C(F)(F)P(=O)(O)O)cc1` displayed an IC50 of 6900 nM.

`O=C(O)COc1ccc(S(=O)(=O)N(Cc2ccccc2)Cc2ccc(C(F)(F)P(=O)(O)O)cc2)cc1OC(F)(F)F` had a half-maximal inhibitory concentration (IC50) of 5000 nM. The IC50 values of the last two compounds are within 1.5-fold of each other.

As to `CC(=O)c1cccc(CN(Cc2ccc(C(F)(F)P(=O)(O)O)cc2)S(=O)(=O)c2ccc(OCC(=O)O)cc2)c1`, the 50% inhibitory concentration (IC50) was determined as 770 nM.

For `O=P(O)(O)C(F)(F)c1ccc(CN(Cc2ccccc2)S(=O)(=O)c2ccccc2)cc1`, the IC50 came to 4200 nM. This IC50 lies about 5.5-fold higher than the previous one.

Compound `Cc1cc(S(=O)(=O)N(Cc2ccccc2)Cc2ccc(C(F)(F)P(=O)(O)O)cc2)cc(C)c1OCC(=O)O` yielded an IC50 of 1900 nM. Against the preceding compound, the IC50 is about 2.2-fold lower.

`CN(C)S(=O)(=O)c1ccc(CN(Cc2ccc(C(F)(F)P(=O)(O)O)c(Br)c2)S(=O)(=O)c2ccc(OCC(=O)O)cc2)cc1` showed an IC50 of 28 nM and a Ki of 13 nM.

As to `O=C(O)COc1ccc(S(=O)(=O)N(Cc2ccccc2)Cc2ccc(C(F)(F)P(=O)(O)O)cc2)cc1`, half-maximal inhibition (IC50) required 600 nM.

As for `O=C(O)COc1ccc(S(=O)(=O)N(Cc2ccccc2)Cc2ccc(C(F)(F)P(=O)(O)O)cc2)cc1C(F)(F)F`, the IC50 turned out to be 4000 nM.

The compound `O=C(O)c1cc(S(=O)(=O)N(Cc2ccccc2)Cc2ccc(C(F)(F)P(=O)(O)O)cc2)ccc1O` registered an IC50 of 2900 nM.

The compound `O=C(O)COc1ccc(S(=O)(=O)N(Cc2ccc(-c3csnn3)cc2)Cc2ccc(C(F)(F)P(=O)(O)O)cc2)cc1` returned an IC50 of 74 nM and an inhibitory constant (Ki) of 56 nM.
